Values of other authors in PMC11012124, “Synthesis of Novel Triazine-Based Chalcones and 8,9-dihydro-7H-pyrimido[4,5-b][1,4]diazepines as Potential Leads in the Search of Anticancer, Antibacterial and Antifungal Agents” (International Journal of Molecular Sciences, 2024).

Key:
Design in all cases: method as in earlier work
Details in all cases: ref https://dtp.cancer.gov/dtpstandard/cancerscreeningdata/index.jsp, read-out: GI50 5-FU (NS 18893); cited from earlier work
[1] = tested on: HOP-92
[2] = tested on: UO-31
[3] = tested on: SF-539
[4] = tested on: HCT-116
[5] = tested on: HCC-2998
[6] = tested on: NCI-H522
[7] = tested on: SW-620
[8] = tested on: CAKI-1
[9] = tested on: RPMI-8226
[10] = tested on: U251
[11] = tested on: CCRF-CEM
[12] = tested on: SN12C
[13] = tested on: MCF7
[14] = tested on: K-562
[15] = tested on: SNB-75
[16] = tested on: SR
[17] = tested on: RXF 393
[18] = tested on: HT29
[19] = tested on: HL-60(TB)
[20] = tested on: LOX IMVI
[21] = tested on: MOLT-4
[22] = tested on: IGROV1
[23] = tested on: MDA-MB-468
[24] = tested on: OVCAR-3
[25] = tested on: HCT-15
[26] = tested on: KM12

Question: Which GI50 [1] does the source give for O=c1[nH]cc(F)c(=O)[nH]1 [5-FU, 5-fluorouracil] here?
Answer: 78 µM

Question: And the GI50 [2]?
Answer: 1430 nM

Question: And the GI50 [3]?
Answer: 60 nM

Question: And the GI50 [4]?
Answer: 230 nM

Question: What about the GI50 [5] of the same compound?
Answer: 50 nM

Question: And the GI50 [6]?
Answer: 7.28 µM

Question: What about the GI50 [7] of the same compound?
Answer: 930 nM

Question: What about the GI50 [8] of the same compound?
Answer: 70 nM

Question: And the GI50 [9]?
Answer: 40 nM

Question: And the GI50 [10]?
Answer: 910 nM

Question: What about the GI50 [11] of the same compound?
Answer: 9.79 µM

Question: And the GI50 [12]?
Answer: 500 nM

Question: And the GI50 [13]?
Answer: 80 nM

Question: And the GI50 [14]?
Answer: 3.58 µM

Question: What about the GI50 [15] of the same compound?
Answer: 78.7 µM

Question: What about the GI50 [16] of the same compound?
Answer: 20 nM

Question: What about the GI50 [17] of the same compound?
Answer: 2610 nM

Question: And the GI50 [18]?
Answer: 180 nM

Question: And the GI50 [19]?
Answer: 2510 nM

Question: And the GI50 [20]?
Answer: 250 nM

Question: What about the GI50 [21] of the same compound?
Answer: 350 nM

Question: And the GI50 [22]?
Answer: 1220 nM

Question: What about the GI50 [23] of the same compound?
Answer: 6.61 µM

Question: What about the GI50 [24] of the same compound?
Answer: 20 nM

Question: And the GI50 [25]?
Answer: 110 nM

Question: And the GI50 [26]?
Answer: 210 nM
